Data on four compounds can be found in paper PMC12363518, “Azobenzene-Modified Temperature-Responsive Short Elastin-like Peptides for Photo-Controlled Phase Transition” (ACS Synthetic Biology, 2025).

Assay in series [1]: not given
This is another data set of the same source.

The nature of series [2]: Water solubility (observation). In kind it is physicochemical. To be noted: qualitative observation.
The nature of series [3]: Turbidity measurement (OD600) of temperature-dependent phase separation, Tt. The format is physicochemical. To be noted: even at 2.38 mM (5.00 mg/mL) in PBS; turbidity OD600. On the procedure:
The ability of the ELP–azobenzene conjugates to self-assemble was investigated by using turbidity measurements. In addition, we evaluated whether the photoisomerization of the azobenzene moieties induced differences in the aggregation ability of these analogues. Each peptide analogue was dissolved in PBS at different concentrations according to its water solubility. To quantitatively evaluate the aggregation ability, the transition temperature (T t) of the peptides was calculated from the change in optical density at a wavelength of 600 nm (OD600) associated with the increasing temperature (Table and Figure ).
The temperature-dependent self-assembly property of synthesized peptides was evaluated by using a JASCO V-660 spectral photometer (JASCO Co.). Each peptide was dissolved in PBS buffer or phosphate buffer solutions at various concentrations. Three types of phosphate buffers with the same ionic strength (μ = 0.100) but different pH (pH 7.4, 2.1, and 11.5) were prepared: phosphate buffer (pH 7.4, 29.4 mM Na2HPO4, 11.7 mM NaH2PO4), phosphate buffer (pH 2.1, 10.0 mM NaH2PO4, 10.5 mM phosphoric acid), and phosphate buffer (pH 11.5, 9.58 mM Na3PO4, 14.2 mM Na2HPO4). Turbidity was measured at 600 nm with increasing or decreasing temperature at a rate of 0.5 °C/min from 5 °C. The measurements were performed for the dark-adapted solution and after successive irradiation with UV light, visible light, and UV light. Each assay was repeated three times with different peptide solutions that were prepared separately. The phase separation property was described by the phase transition temperature (T t), which is the temperature at which the turbidity of the solution reaches half its maximum value.

A short description of series [4]: Particle size distribution by dynamic light scattering (DLS). The format is physicochemical. To be noted: PBS.

Numbered stars: 1 amine (or outer) side, 2 acyl side, 3 side chain; on linkers, the order of the positions; unused ones are H or OH. Bridge positions count the residues as written; N and C are the ends. Square brackets hold non-standard residues; d marks the D form. Peptide text beside a SMILES is read from it. I, II: the chains in the order shown. X1 = O=C(c1ccc(N=Nc2ccc(C(=O)[*:2])cc2)cc1)[*:1]; X2 = O=C(c1ccc(N=Nc2ccc(N[*:1])cc2)cc1)[*:2]; X3 = c1cc(N[*:1])ccc1N=Nc1ccc(N[*:2])cc1

In turn, `CC(C)[C@H](NC(=O)CNC(=O)[C@@H]1CCCN1C(=O)[C@H](Cc1ccccc1)NC(=O)CNC(=O)[C@@H](NC(=O)CNC(=O)[C@@H]1CCCN1C(=O)[C@@H](N)Cc1ccccc1)C(C)C)C(=O)NCC(=O)N[C@@H](CC(=O)O)C(=O)Nc1ccc(N=Nc2ccc(NC(=O)[C@H](CC(=O)O)NC(=O)CNC(=O)[C@@H](NC(=O)CNC(=O)[C@@H]3CCCN3C(=O)[C@H](Cc3ccccc3)NC(=O)CNC(=O)[C@@H](NC(=O)CNC(=O)[C@@H]3CCCN3C(=O)[C@@H](N)Cc3ccccc3)C(C)C)C(C)C)cc2)cc1` (I: H-FPGVGFPGVGD / II: H-FPGVGFPGVGD; linker I:C-II:C via X3) returned a peak wavelength π–π* of 364 nm. This compound gave a peak wavelength n–π* in series [1] of 450 nm.
Take `CC(C)[C@H](NC(=O)CNC(=O)[C@@H]1CCCN1C(=O)[C@H](Cc1ccccc1)NC(=O)CNC(=O)[C@@H](NC(=O)CNC(=O)[C@@H]1CCCN1C(=O)[C@H](Cc1ccccc1)NC(=O)c1ccc(N=Nc2ccc(NC(=O)CNC(=O)[C@@H](NC(=O)CNC(=O)[C@@H]3CCCN3C(=O)[C@H](Cc3ccccc3)NC(=O)CNC(=O)[C@@H](NC(=O)CNC(=O)[C@@H]3CCCN3C(=O)[C@@H](N)Cc3ccccc3)C(C)C)C(C)C)cc2)cc1)C(C)C)C(=O)NCC(N)=O` [F2-Azb-F2-NH2] (H-FPGVGFPGVG[X2]FPGVGFPGVG-NH2): the peak wavelength π–π* is 356 nm. The compound also returned a peak wavelength n–π* in series [1] of 450 nm. Further, in series [2], the water solubility entry is listed as “low water solubility”.
For `CC(C)[C@H](NC(=O)CNC(=O)[C@@H]1CCCN1C(=O)[C@H](Cc1ccccc1)NC(=O)CNC(=O)[C@@H](NC(=O)CNC(=O)[C@@H]1CCCN1C(=O)[C@H](Cc1ccccc1)NC(=O)c1ccc(N=Nc2ccc(NC(=O)CNC(=O)[C@@H](NC(=O)CNC(=O)[C@@H]3CCCN3C(=O)[C@H](Cc3ccccc3)NC(=O)CNC(=O)[C@@H](NC(=O)CNC(=O)[C@@H]3CCCN3C(=O)[C@@H](N)Cc3ccccc3)C(C)C)C(C)C)cc2)cc1)C(C)C)C(=O)NCC(=O)O` [F2-Azb-F2] (H-FPGVGFPGVG[X2]FPGVGFPGVG-OH), in that order: 354 nm, 444 nm and “low water solubility”.
For the compound `CC(C)[C@H](NC(=O)CNC(=O)[C@@H]1CCCN1C(=O)[C@H](Cc1ccccc1)NC(=O)CNC(=O)[C@@H](NC(=O)CNC(=O)[C@@H]1CCCN1C(=O)[C@H](Cc1ccccc1)NC(=O)c1ccc(N=Nc2ccc(C(=O)N[C@@H](Cc3ccccc3)C(=O)N3CCC[C@H]3C(=O)NCC(=O)N[C@H](C(=O)NCC(=O)N[C@@H](Cc3ccccc3)C(=O)N3CCC[C@H]3C(=O)NCC(=O)N[C@H](C(=O)NCC(=O)O)C(C)C)C(C)C)cc2)cc1)C(C)C)C(=O)NCC(=O)O` [Azb-2(F2)] (I: FPGVGFPGVG-OH / II: FPGVGFPGVG-OH; linker I:N-II:N via X1), the “phase separation in PBS” value in series [3] is listed as “did not exhibit phase separation”. In series [4], the “self-assembly in dark-adapted solution (DLS)” value is recorded as “did not exhibit self-assembly”.
